The values that follow come from paper PMC10410611, “Rhenium(I) Tricarbonyl Complexes of 1,10-Phenanthroline Derivatives with Unexpectedly High Cytotoxicity” (Inorganic Chemistry, 2023).

Bounds are passed on as bounds.

The test system of one series is RPE-1 cells. Description: Cytotoxicity, Resazurin assay, normoxic conditions. The format is cell-based, human. Conditions: normoxic conditions (∼15% O2 level), 48 h, read-out: IC50 (μM) ± S.D. RPE-1. How it is done:
(§1) The standard Resazurin assay was performed to determine the cytotoxicity of the synthesized complexes. […] After 24 h of the initial incubation period, the medium was replenished by a fresh metal complex-containing medium (100 μL/well) and incubated for an additional 48 h. Initially, the metal complex was dissolved in DMSO and the target concentration was achieved by further dilution with the medium. […] Each of the reported IC50 values is the mean of three individual experiments with standard deviation, and each concentration was assayed in sextuplicate in each successive experiment.

Series [1] concerns PC3 cells. The series is described as follows: Cytotoxicity, Resazurin assay, normoxic conditions. The format is cell-based, human. Conditions: for IC50: normoxic conditions (∼15% O2 level), 48 h, Resazurin, read-out: IC50 (μM) ± S.D. PC3. How it is done:
as §1

For series [2], the system named is PC3 cells. The series is described as follows: Cytotoxicity, Resazurin assay, hypoxic conditions. The format is cell-based, human. Conditions: for Hypoxia resistance factor (ratio of IC50 in hypoxia and normoxia): PC3; for IC50: PC3, hypoxic conditions (2% O2), 48 h, Resazurin, read-out: IC50 (µM) ± S.D. Hypoxia. The source says:
Initially, at least three consecutive cell passages were maintained in hypoxic conditions before starting any experiments.

Series [3] deals with 3D multicellular PC3 cell spheroids. Description: Cytotoxicity against 3D cell spheroid, AlamarBlue assay. In kind it is cell-based, human. Conditions: average diameter 435 μm, 72 h, normoxic, read-out: IC50 against 3D multicellular PC3 cells spheroid. As to the method:
1 × 10^4 PC3 cells were seeded in each well of a Corning 96 Well Ultra-Low Attachment Treated Spheroid Microplate. After 96 h of incubation at 37 °C in normoxic conditions, the average spheroid size observed was 435 μm. Half of the medium was replaced by an equal volume of complex-containing (two times of target concentrations) medium. After 72 h, the cell viability was measured using the AlamarBlue assay. Finally, the IC50 values were determined by using GraphPad Prism 5 software after applying four parameter fitting.

For series [4] the following is noted: cited from earlier work.
The test system of series [5] is ctDNA. Description: DNA melting. In kind it is binding, calf. Conditions: ctDNA 40 μM, compound 30 μM. As to the method: The DNA binding ability of complex 6 was confirmed by measuring the DNA melting temperature prior to complex binding. Briefly, 40 μM ctDNA was incubated with 30 μM of the complex at 37 °C for 15 min. Afterward, the absorbance of the solution was measured at 260 nm in each °C increment in temperature within the range from 60–97 °C. A Cary UV 300 (Agilent Technologies) was used to measure all absorbances. The experiment was programmed with a 1 °C/min temperature ramp rate from the temperature range 60–97 °C, and the holding time was 1 min. Finally, the absorbance of each experiment was normalized to 0 and 1 and further compared with the melting temperature of native ctDNA.

In series [6] the test system is ctDNA. Details: method as in PMID 18467423. Particulars: for ctDNA; cited from earlier work.

For the compound `N.N.[Cl][Pt][Cl]` [cisplatin, reference compound], the IC50 was 36 ± 4 µM in the series on RPE-1 cells, 6.9 ± 0.5 µM in the series with PC3 cells [1], more than 50 µM in the series on PC3 cells [2] and 6.22 µM in series [3]. Besides, the “selectivity (ratio between IC50 against RPE-1 and IC50 against PC3 cells)” value in the series with PC3 cells [1] (normoxic conditions) is listed as 5. Moreover, the “Hypoxia resistance factor (ratio of IC50 in hypoxia and normoxia)” value in the series on PC3 cells [2] is listed as more than 7.

Turning to `Nc1n[n+]([O-])c2ccccc2[n+]1[O-]` [Tirapazamine, tirapazamine, reference compound], the IC50 in the series on PC3 cells [1] (Homo sapiens, PC-3) was approximately 100 µM; in the series on PC3 cells [2] (Homo sapiens, PC-3), 20.4 ± 3 µM. The “cell killing in comparison to the control” value in the series with PC3 cells [1] (PC3, normoxia, maximum tested concentration 100 µM) was “around 50%”. Besides, in the series on PC3 cells [2], the “Hypoxia resistance factor (ratio of IC50 in hypoxia and normoxia)” value worked out at 0.2.

As to `O.O=c1cccccc1[O][Re].[C-]#[O+].[C-]#[O+].[C-]#[O+]` [fac-[Re(CO)3(Trop)(H2O)]], the pKa in series [4] was 8.96 ± 0.02.

On to `CC[n+]1c(-c2ccccc2)c2cc(N)ccc2c2ccc(N)cc21` [EB, ethidium bromide, reference compound], for which, in the series on ctDNA [5], the “shift of ctDNA melting temperature (ΔTm)” value was 4 ± 0.1 °C. Also, in the series on ctDNA [6], the “binding constant of EB (KEB)” value is listed as 1 × 10^7 M^–1.
